Experimental data as given in patent US20150126368A1, “METHOD OF PROVIDING PLANT WITH STRESS RESISTANCE” (Nippon Soda Co., Ltd., priority 2012, published 2015).
Read-outs that look alike come from different tables or passages of the source.

Columns and labels:
[1] = test system: tomato yellow leaf curl virus (TYLCV); assay: Test for symptom relief effects against tomato yellow leaf curl virus disease; format: in vivo; conditions: 500 ppm alone
Method: N,N-dimethylformamide based solutions were prepared according to the formulations shown in Table 18 to give chemical liquids for the tests.
Tomato nursery plants (breed: Momotaro) grown up to the 8 leaf stage in a greenhouse were prepared.
Tomato nursery plants suffering from tomato yellow leaf curl virus (TYLCV) were used as inoculation sources.
A diseased plant was obliquely cut in round slices at the stem, and graft-inoculated to a tomato nursery plant. In order to prevent dryness, parafilm was wrapped around the grafted portion for protection.
After the graft inoculation, the above chemical solution was sprayed on the stem and leaf part of the tomato nursery plant in a sufficient amount. Then, the above chemical solution was sprayed 3 times at intervals of about one week in a sufficient amount. Symptoms of tomato yellow leaf curl disease were investigated at an elapsed time of 25 days.
Symptoms were evaluated by 5 levels of onset indices of 0 (with no onset) to 4 (fulminant).
Onset inhibition percentages as compared with a region treated with solvent DMF only (Chemical solution 3) were computed by the following formula.
Onset inhibition percentage=(onset index of region treated with solvent only)−(onset index of each treatment region))/(onset index of region treated with solvent only)×100
Further, the expectation values of onset inhibition percentages were computed based on the Colby's equation.
The Colby's equation is E=M+N−MN/100. In the equation, E represents the expectation value of an onset inhibition percentage (%), and M represents an onset inhibition percentage (%) calculated from measurements when the substance (A1) is used alone, and N represent an onset inhibition percentage (%) calculated from measurements when the substance (A2) is used alone.

[2] = test system: Tomato nursery plants (breed: Momotaro); format: in vivo; conditions: spray, 7 days; for phytotoxicity index: index 0 to 10
Method: N,N-dimethylformamide based solutions were prepared according to the formulations shown in Table 10 to give chemical solutions for the tests.
Tomato nursery plants (breed: Momotaro) grown up to the 4 leaf stage in a greenhouse were prepared.
The above chemical solution was sprayed to the stem and leaf parts of the above tomato nursery plants in an amount of liquid dropping, and then air dried. They were allowed to grow for 7 days under the average temperature and humidity conditions on March in Japan.
Subsequently, phytotoxicity such as a degree of leaf browning and outgrowth inhibition was investigated.
Phytotoxicity was evaluated by 11 levels of phytotoxicity indices of 0 (with no disorder) to 10 (withering to death).
Chemical poisoning injury relief percentages as compared with a region treated with solvent DMF only were computed by the following formula.
Chemical poisoning injury relief percentage=(phytotoxicity index of region treated with solvent only)−(phytotoxicity index of each treated region))/(phytotoxicity index of region treated with solvent only)×100

[3] = agric. chemical 100 ppm alone (reference)
[4] = agric. chemical 200 ppm alone (reference)

Row | SMILES | Onset percentage(%) ([1]; tomato graft-inoculated, sprayed 4 times, 25 days) | Onset inhibition percentage(%) ([1]; vs solvent DMF only, 25 days) | Expectation value(%) ([1]; expectation value of onset inhibition percentage) | relief percents of phytotoxicity (%) [2, 3] | phytotoxicity index ([2]; agric. chemical 100 ppm alone) | relief percents of phytotoxicity (%) [2, 4] | phytotoxicity index ([2]; agric. chemical 200 ppm alone)
1 | O=C1O[C@H]([C@@H](O)CO)C(O)=C1O[C@H]1O[C@H](CO)[C@@H](O)[C@H](O)[C@H]1O [Ascorbyl glucoside] | 40% | 20% | 20% |  |  |  | 
2 | CO/C=C(/C(=O)OC)c1ccccc1Oc1cc(Oc2ccccc2C#N)ncn1 [Azoxystrobin] |  |  |  | 0% | 5 | 0% | 6
3 | O=[N+]([O-])c1cc(C(F)(F)F)c(Cl)c([N+](=O)[O-])c1Nc1ncc(C(F)(F)F)cc1Cl [Fluazinam] |  |  |  | 0% | 6 | 0% | 6
